Test results reported in US20240270699A1, “COMPOUNDS HAVING N-ARYLPYRIMIDIN-2-AMINE DERIVATIVES AS THERAPEUTIC AGENTS” (Lomond Therapeutics, Inc., priority 2021, published 2024).

Molecular target: T1, recombinant HPK1 protein (Homo sapiens, UniProt Q92918)
T1 construct: purchased Promega V6398
T1 sequence (Q92918 1-346 limits assumed): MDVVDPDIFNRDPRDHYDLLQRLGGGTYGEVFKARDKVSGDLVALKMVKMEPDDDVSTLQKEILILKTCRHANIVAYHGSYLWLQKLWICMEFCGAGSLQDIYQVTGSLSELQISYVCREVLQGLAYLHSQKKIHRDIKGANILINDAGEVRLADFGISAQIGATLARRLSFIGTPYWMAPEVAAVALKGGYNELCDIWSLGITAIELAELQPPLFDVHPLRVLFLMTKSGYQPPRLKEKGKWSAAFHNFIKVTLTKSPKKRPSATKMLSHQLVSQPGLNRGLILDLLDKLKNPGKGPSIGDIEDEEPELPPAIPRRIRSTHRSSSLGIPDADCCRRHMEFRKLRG
Assay: Primary assay of HPK1 enzymatic activity inhibition (ADP-Glo luminescence)
Format: biochemical
Conditions: recombinant HPK1, MBP substrate, 1 hour at room temperature

IC50 [µM]	SMILES
< 0.05	CN(C)Cc1noc(-c2cnc(Nc3ccc4c(c3)CNC4=O)nc2N[C@H](CO)c2ccccc2)n1 [Compound 585, 5-[[5-[3-[(dimethylamino)methyl]-1,2,4-oxadiazol-5-yl]-4-[[(1S)-2-hydroxy-1-phenyl-ethyl]amino]pyrimidin-2-yl]amino]isoindolin-1-one]
< 0.05	CCOC(=O)c1cnc(Nc2ccc(C(N)=O)c(Cl)c2)nc1N[C@H](CO)c1ccccc1 [Compound 559, Ethyl 2-(4-carbamoyl-3-chloro-anilino)-4-[[(1S)-2-hydroxy-1-phenyl-ethyl]amino]pyrimidine-5-carboxylate]
≥ 0.5	CCOC(=O)c1cnc(Nc2ccc3c(c2)NC(=O)CCC3)nc1N[C@H](CO)c1ccccc1 [Compound 574, ethyl 4-[[(1S)-2-hydroxy-1-phenyl-ethyl]amino]-2-[(2-oxo-1,3,4,5-tetrahydro-1-benzazepin-8-yl)amino]pyimidine-5-carboxylate]
0.05 to 0.2	CCOC(=O)c1cnc(N(c2ccc3c(c2)CCCNC3=O)c2ncc(C(=O)OCC)c(N[C@H](CO)c3ccccc3)n2)nc1N[C@H](CO)c1ccccc1 [Compound 576, ethyl 2-[[5-ethoxycarbonyl-4-[[(1S)-2-hydroxy-1-phenyl-ethyl]amino]pyrimidin-2-yl]-(1-oxo-2,3,4,5-tetrahydro-2-benzazepin-7-yl)amino]-4-[[(1S)-2-hydroxy-1-phenyl-ethyl]amino]pyrimidin-5-carboxylate]
≥ 0.5	CCOC(=O)c1cnc(Nc2ccc(S(C)(=O)=O)c(F)c2)nc1N[C@H]1c2ccccc2C[C@H]1O [Compound 298, ethyl 2-(3-fluoro-4-methylsulfonyl-anilino)-4-[[(1S,2R)-2-hydroxyindan-1-yl]amino]pyrimidine-5-carboxylate]
≥ 0.5	CCOC(=O)c1cnc(Nc2ccc(C(F)(F)F)c(Cl)c2)nc1N[C@H](CO)c1ccccc1 [Compound 248, Ethyl 2-{[3-chloro-4-(trifluoromethyl)phenyl]amino}-4-{[(1S)-2-hydroxy-1-phenylethyl]amino}pyrimidine-5-carboxylate]
≥ 0.5	N#Cc1cnc(Nc2ccc3c(c2)CCNC3=O)nc1N[C@H](CO)c1ccccc1 [Compound 567, 4-[[(1S)-2-hydroxy-1-phenyl-ethyl]amino]-2-[(1-oxo-3,4-dihydro-2H-isoquinolin-6-yl)amino]pyrimidine-5-carbonitrile]
≥ 0.5	CCOC(=O)c1cnc(Nc2ccc3c(c2)C(=O)NC(C(C)C)C(=O)N3)nc1N[C@H](CO)c1ccccc1 (stereo partly drawn) [Compound 467, Ethyl 4-[[(1S)-2-hydroxy-1-phenyl-ethyl]amino]-2-[(3-isopropyl-2,5-dioxo-3,4-dihydro-1H-1,4-benzodiazepin-7-yl)amino]pyrimidine-5-carboxylate]
≥ 0.5	O=C(NC1CCCC1)c1cnc(Nc2ccc(C(F)(F)F)c(Cl)c2)nc1N[C@H](CO)c1ccccc1 [Compound 472, 2-{[3-chloro-4-(trifluoromethyl)phenyl]amino}-N-cyclopentyl-4-{[(1S)-2-hydroxy-1-phenylethyl]amino}pyrimidine-5-carboxamide]
≥ 0.5	O=C(NC1CCCC1)c1cnc(Nc2ccc(F)c(-c3ccccc3)c2)nc1N[C@H](CO)c1ccccc1 [Compound 440, N-cyclopentyl-2-[(6-fluorobiphenyl-3-yl)amino]-4-{[(1S)-2-hydroxy-1-phenylethyl]amino}pyrimidine-5-carboxamide]
≥ 0.5	CS(=O)(=O)c1ccc(Nc2ncc(C(=O)N3CCCC3)c(N[C@H](CO)c3ccccc3)n2)cc1F [Compound 371, [2-(3-fluoro-4-methylsulfonyl-anilino)-4-[[(1S)-2-hydroxy-1-phenyl-ethyl]amino]pyrimidin-5-yl]-pyrrolidin-1-yl-methanone]
0.2 to 0.5	CCOC(=O)c1cnc(Nc2ccc(C(=O)O)c(OC)c2)nc1N[C@H](CO)c1ccccc1 [Compound 62, 4-[[5-ethoxycarbonyl-4-[[(1S)-2-hydroxy-1-phenyl-ethyl]amino]pyrimidin-2-yl]amino]-2-methoxy-benzoic acid]
≥ 0.5	CCOC(=O)c1cnc(Nc2ccc(S(C)(=O)=O)c(F)c2)nc1N[C@H](C)c1ccccc1 [Compound 97, ethyl 2-(3-fluoro-4-methylsulfonyl-anilino)-4-[[(1R)-1-phenylethyl]amino]pyrimidine-5-carboxylate]
≥ 0.5	CCOC(=O)c1cnc(Nc2ccc(C(=O)NC)c(C)c2)nc1N[C@H](CO)c1ccccc1 [Compound 48, Ethyl 4-[[(1S)-2-hydroxy-1-phenyl-ethyl]amino]-2-[3-methyl-4-(methylcarbamoyl)anilino]pyrimidine-5-carboxylate]
< 0.05	Cc1noc(-c2cnc(Nc3ccc4c(c3)CCN(C)C4=O)nc2N[C@H](CO)c2ccccc2)n1 [Compound 183, 6-[[4-[[(1S)-2-hydroxy-1-phenyl-ethyl]amino]-5-(3-methyl-1,2,4-oxadiazol-5-yl)pyrimidin-2-yl]amino]-2-methyl-3,4-dihydroisoquinolin-1-one]
≥ 0.5	CCOC(=O)c1cnc(Nc2ccc(S(C)(=O)=O)cc2OC)nc1N[C@H](CO)c1ccccc1 [Compound 299, Ethyl 4-{[(1S)-2-hydroxy-1-phenylethyl]amino}-2-{[2-methoxy-4-(methylsulfonyl)phenyl]amino}pyrimidine-5-carboxylate]
≥ 0.5	CCOC(=O)c1cnc(Nc2ccc(S(C)(=O)=O)c(F)c2)nc1N1Cc2ccccc2CC1CO (stereo not drawn) [Compound 388, ethyl 2-(3-fluoro-4-methylsulfonyl-anilino)-4-[3-(hydroxymethyl)-3,4-dihydro-1H-isoquinolin-2-yl]pyrimidine-5-carboxylate]
0.2 to 0.5	CCOC(=O)c1cnc(Nc2ccc(C(=O)N(C)C)c(OC)c2)nc1N[C@H](CO)c1ccccc1 [Compound 247, Ethyl 2-[4-(dimethylcarbamoyl)-3-methoxy-anilino]-4-[[(1S)-2-hydroxy-1-phenyl-ethyl]amino]pyrimidine-5-carboxylate]
≥ 0.5	CS(=O)(=O)c1ccc(Nc2ncc(C(=O)O)c(N[C@H](CO)c3ccccc3)n2)cc1F [Compound 42, 2-{[3-fluoro-4-(methylsulfonyl)phenyl]amino}-4-{[(1S)-2-hydroxy-1-phenylethyl]amino}pyrimidine-5-carboxylic Acid]
≥ 0.5	CN(CCO)C(=O)c1cnc(Nc2ccc(S(C)(=O)=O)c(F)c2)nc1N[C@H](CO)c1ccccc1 [Compound 402, 2-(3-fluoro-4-methylsulfonyl-anilino)-N-(2-hydroxyethyl)-4-[[(1S)-2-hydroxy-1-phenyl-ethyl]amino]-N-methyl-pyrimidine-5-carboxamide]
< 0.05	CCOC(=O)c1cnc(Nc2ccc3c(c2)CNC3=O)nc1N[C@H](CO)c1ccccc1 [Compound 565, ethyl 4-[[(1S)-2-hydroxy-1-phenyl-ethyl]amino]-2-[(1-oxoisoindolin-5-yl)amino]pyrimidine-5-carboxylate]
≥ 0.5	CS(=O)(=O)c1ccc(Nc2ncc3[nH]c(=O)n([C@H](CO)c4ccccc4)c3n2)cc1F [Compound 577, 2-(3-fluoro-4-methylsulfonyl-anilino)-9-[(1S)-2-hydroxy-1-phenyl-ethyl]-7H-purin-8-one]
≥ 0.5	CNC(=O)c1cnc(Nc2ccc(C(F)(F)F)c(Cl)c2)nc1N[C@H](CO)c1ccccc1 [Compound 132, 2-{[3-chloro-4-(trifluoromethyl)phenyl]amino}-4-{[(1S)-2-hydroxy-1-phenylethyl]amino}-N-methylpyrimidine-5-carboxamide]
≥ 0.5	CS(=O)(=O)c1ccc(Nc2ncc(C#N)c(N[C@H](CO)c3ccccc3)n2)cc1F [Compound 2, 2-{[3-fluoro-4-(methylsulfonyl)phenyl]amino}-4-{[(1S)-2-hydroxy-1-phenylethyl]amino}pyrimidine-5-carbonitrile]
< 0.05	CN1CCc2cc(Nc3ncc(-c4nnco4)c(N[C@H](CO)c4ccccc4)n3)ccc2C1=O [Compound 89, 6-[[4-[[(1S)-2-hydroxy-1-phenyl-ethyl]amino]-5-(1,3,4-oxadiazol-2-yl)pyrimidin-2-yl]amino]-2-methyl-3,4-dihydroisoquinolin-1-one]
≥ 0.5	CCOC(=O)c1cnc(Nc2ccc3c(c2)CCN(C(C)C)C3=O)nc1N[C@H](CO)c1ccccc1 [Compound 316, Ethyl 4-[[(1S)-2-hydroxy-1-phenyl-ethyl]amino]-2-[(2-isopropyl-1-oxo-3,4-dihydroisoquinolin-6-yl)amino]pyrimidine-5-carboxylate]

SMILES	IC50 [µM]
C=Cc1noc(-c2cnc(Nc3ccc4c(c3)CCN(COCC[Si](C)(C)C)C4=O)nc2N[C@H](CO)c2ccccc2)n1 [Compound 580, 6-[[4-[[(1S)-2-hydroxy-1-phenyl-ethyl]amino]-5-(3-vinyl-1,2,4-oxadiazol-5-yl)pyrimidin-2-yl]amino]-2-(2-trimethylsilylethoxymethyl)-3,4-dihydroisoquinolin-1-one]	< 0.05

Test system: Jurkat cells
Assay: IL-2 release Jurkat assay (anti-CD3/anti-CD28 stimulation, IL-2 ELISA)
Format: cell-based, human
Conditions: Table D: Jurkat, 6 μM of tested compounds, activation with 400 ng/mL aCD3 + 400 ng/mL aCD28, 24 hours; stimulated vehicle = B

SMILES	IL-2, pg/mL stimulated
CCOC(=O)c1cnc(Nc2ccc(C(N)=O)c(Cl)c2)nc1N[C@H](CO)c1ccccc1 [Compound 559, Ethyl 2-(4-carbamoyl-3-chloro-anilino)-4-[[(1S)-2-hydroxy-1-phenyl-ethyl]amino]pyrimidine-5-carboxylate]	D (150 pg/mL≤IL-2)

Same assay, conditions: Table G: Jurkat, 1.0 μM of tested compounds, activation with 400 ng/mL aCD3 + 400 ng/mL aCD28, 24 hours

SMILES	IL-2, pg/mL stimulated
CN(C)Cc1noc(-c2cnc(Nc3ccc4c(c3)CNC4=O)nc2N[C@H](CO)c2ccccc2)n1 [Compound 585, 5-[[5-[3-[(dimethylamino)methyl]-1,2,4-oxadiazol-5-yl]-4-[[(1S)-2-hydroxy-1-phenyl-ethyl]amino]pyrimidin-2-yl]amino]isoindolin-1-one]	D (150 pg/mL≤IL-2)
Cc1noc(-c2cnc(Nc3ccc4c(c3)CCN(COC(=O)C(C)(C)C)C4=O)nc2N[C@H](CO)c2ccccc2)n1 [Compound 581, [6-[[4-[[(1S)-2-hydroxy-1-phenyl-ethyl]amino]-5-(3-methyl-1,2,4-oxadiazol-5-l)pyrimidin-2-yl]amino]-1-oxo-3,4-dihydroisoquinolin-2-yl]methyl 2,2-dimethylpropanoate]	D (150 pg/mL≤IL-2)
